Test results published in article PMC11926880, “Procognitive Potential of Neuroprotective Triazine 5-HT6 Receptor Antagonists Tested on Chronic Activity In Vivo in Rats: Computer-Aided Insight into the Role of Chalcogen-Differences on the Pharmacological Profile” (ACS Chemical Neuroscience, 2025).

Test system: NRF2
Experiment: Western blot for NRF2 (total and nuclear extracts)
Assay type: cell-based, human
Conditions: 10 μM, 24 h

In the case of CN1CCN(c2nc(N)nc(C(C)(C)Sc3ccc4ccccc4c3)n2)CC1 [WA-22, 4-(4-methylpiperazin-1-yl)-6-(2-(naphthalen-2-ylthio)propan-2-yl)-1,3,5-triazin-2-amine], the “NRF2 protein amount (total extract)” value (GAPDH loading control) is reported as “protein amount was not modulated” and the “NRF2 translocation from cytoplasm to nucleus” value (nuclear extracts, H3 loading control) is reported as “effectively induce a shuffling of this protein inside the nucleus”.
